This is an account of results in BindingDB's records for doi:10.1016/s0014-2999(02)01314-6 (Takeda Chemical Industries, 2002).

The target in the assay is Melanin-concentrating hormone receptor 1 (Rattus norvegicus, UniProt P97639).
Sequence of Melanin-concentrating hormone receptor 1 (P97639 whole entry): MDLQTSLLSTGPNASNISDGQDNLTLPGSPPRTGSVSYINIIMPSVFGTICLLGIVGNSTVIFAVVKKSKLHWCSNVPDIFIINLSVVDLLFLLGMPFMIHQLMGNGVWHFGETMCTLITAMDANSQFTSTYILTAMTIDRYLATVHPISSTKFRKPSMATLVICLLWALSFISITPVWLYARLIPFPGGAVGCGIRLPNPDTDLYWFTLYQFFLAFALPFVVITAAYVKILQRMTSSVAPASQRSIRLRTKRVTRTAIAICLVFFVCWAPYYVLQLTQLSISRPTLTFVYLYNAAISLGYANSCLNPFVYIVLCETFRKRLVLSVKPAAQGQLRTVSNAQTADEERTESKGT

In the case of `CN(C)CC1CCc2cc(NC(=O)c3ccc(-c4ccc(F)cc4)cc3)ccc2C1` (stereo unspecified) [4''-Fluoro-biphenyl-4-carboxylic acid (6-dimethylaminomethyl-5,6,7,8-tetrahydro-naphthalen-2-yl)-amide], the Ki worked out at 8.6 nM.

Broadly, the Ki is the dissociation constant of the complex between target and ligand, obtained from inhibition or displacement.
